{"source": "patent US20230126533A1", "about": "“Method of treating an inflammatory disorder” (The University of Miami, priority 2020, published 2023)", "key": {"CD209f gene": {"system": "CD209f gene", "assay": "RNASeq gene expression in lungs of MAB microparticle challenged mice", "format": "in vivo, mouse", "settings": "challenged mice with AVR treatment vs challenged mice", "method": "(§1) A mouse model of pulmonary sarcoidosis was previously established in C57B1/6 mice. Microparticles (Mycobacterium abscessus) developed in-house were administered intratracheally. The tongue was pulled out with a small spatula and microparticle was inserted into the trachea using a 20 G angio-catheter tube and advanced to main bronchus until reach to resistant. After tube placement, microparticles were administered (first dose of 50 μL=5×10^8, followed by up to 3 doses of 20 μL=2×10^8 of CFU of M. abscessus). The control group received only 20 μL PBS intratracheally.\n(§2) One sarcoidosis group received AVR (“AVR group”), administered via subcutaneous injection, 5 microgram per mouse daily. Another sarcoidosis group received steroid treatment ([…], the current first line treatment for sarcoidosis) (“solu-medrol group”), and the final group received only saline (“granuloma group”). After 3 weeks mice were sacrificed and graded the inflammation in the lung samples.\nWhole gene expression was analyzed using RNASeq. Harvested lung from control, challenged, and treatment groups generated as described in Example 3 were used. RNA was isolated and RNASeq was performed at Genomic center at University of Miami. […] A heatmap was generated for the differentiating genes between challenged mice with MAB microparticles versus challenged mice with AVR treatment."}, "[1]": {"system": "C57B1/6 mice challenged with Mycobacterium abscessus (MAB) microparticles", "assay": "Lung inflammation score in mouse model of pulmonary sarcoidosis", "format": "in vivo", "settings": "AVR 5 microgram per mouse daily subcutaneous, after 3 weeks, vs saline granuloma group", "method": "as §1\nThe lung tissue was fixed in formalin and cut for histology. Developed noncaseating granuloma in the mouse lung was visualized with H&E staining and immunohistochemistry staining for CD68 macrophage marker, CD4 marker, and PD-L1.\nas §2\nTwo mg of AVR-352 was added to 0.5 ml DMSO. After dissolving, 1,2-propanediol 10% was added to reach a volume of 40 ml. The fluid was sterilized by passing through a 0.22-micron filter. […]"}, "IL2, OAS1 and ISG15": {"system": "IL2, OAS1 and ISG15", "assay": "Cytokine expression (Western blot) in lungs of MAB microparticle challenged mice", "format": "in vivo", "settings": "mouse models of Example 3; vs MAB microparticle challenge", "method": "as §1, §2\nThe effects of AVR on IL2 (T helper 1 cytokine) and Type I interferon cytokines (OAS1 and ISG15) were measured and compared in the lungs of mice models prepared as set forth in Example 3."}, "iNOS": {"system": "iNOS", "assay": "iNOS expression in lungs of MAB microparticle challenged mice", "format": "in vivo", "settings": "mouse models of Example 3; vs MAB microparticle alone", "method": "as §1, §2\nInducible Nitric oxide synthase (iNOS) plays important role in immune response to microbes. NO can control the production of Th1 immune responses by modulating IL-12 expression. NO plays an important inhibitory role in Th17 differentiation. […] To test whether AVR reduces iNOS expression in an inflammation model, lungs from mouse models described in Example 3 were evaluated for iNOS."}, "[2]": {"system": "PBMC of subjects with confirmed pulmonary sarcoidosis", "assay": "Apoptosis-related proteins in ex vivo sarcoidosis granuloma model (multiplex Elisa)", "format": "cell-based, human", "settings": "PBMC challenged with MAB microparticles 10:1, 48 h; for active caspase 3 concentration: 1 microM AVR", "description": "GHRHR antagonists induce apoptosis in cancer cells. The effects of GHRHR antagonist in immune cells still remains unclear. The ability of AVR to induce apoptosis in an ex vivo sarcoidosis model using PBMC of five subjects with confirmed pulmonary sarcoidosis was characterized.\nPBMC samples were grouped as “control” (not challenged), “particles” (granuloma), “particles+AVR” (granuloma treated with 1 microM AVR), and “particles+Solu” (granuloma treated with methyl prednisolone as positive control). The “particle” groups were challenged with equal to 10:1 treatment with MAB microparticles. Media from all groups were removed 48 h after of treatments. Survivn, MCL-1/Bak Dimer, BClxL/Bak dimer, and active caspase 3 concentrations were measured using multiplex Elisa instrument and compared using t-test."}}, "note": "Starred links: 1 amine or outer side, 2 acyl side, 3 side chain; linkers in the order of their positions; H or OH if unused. Non-standard residues stand in square brackets, D forms with d. *: point of attachment. Tyr(Me) = O-methyl-tyrosine, COc1ccc(C[C@H](N[*:1])C(=O)[*:2])cc1; Phenylacetyl(2,3,4,5,6-F5) = O=C(Cc1c(F)c(F)c(F)c(F)c1F)*; Phe(F5) = N[C@@H](Cc1c(F)c(F)c(F)c(F)c1F)C(=O)O; hArg = N=C(N)NCCCC[C@H](N)C(=O)O; 12Ado = NCCCCCCCCCCCC(=O)O; Nle = CCCC[C@H](N)C(=O)O; Abu = CC[C@H](N)C(=O)O"}
{"molecule": "5FPhAC-Ada-Tyr-DArg-Asp-Ala-Ile-5FPhe-Thr-Ala-Har-Tyr(Me)-Arg-Lys-Val-Leu-Abu-Gln-Leu-Ser-Ala-Arg-Lys-Leu-Leu-Gln-Asp-Ile-Nle-DArg-Har-Ada-NH2 ({Phenylacetyl(2,3,4,5,6-F5)-12Ado}-Y[dR]DAI[Phe(F5)]TA[hArg][Tyr(Me)]RKVL[Abu]QLSARKLLQDI[Nle][dR][hArg]-{12Ado-NH2}; SMILES CCCC[C@H](NC(=O)[C@@H](NC(=O)[C@H](CC(=O)O)NC(=O)[C@H](CCC(N)=O)NC(=O)[C@H](CC(C)C)NC(=O)[C@H](CC(C)C)NC(=O)[C@H](CCCCN)NC(=O)[C@H](CCCNC(=N)N)NC(=O)[C@H](C)NC(=O)[C@H](CO)NC(=O)[C@H](CC(C)C)NC(=O)[C@H](CCC(N)=O)NC(=O)[C@H](CC)NC(=O)[C@H](CC(C)C)NC(=O)[C@@H](NC(=O)[C@H](CCCCN)NC(=O)[C@H](CCCNC(=N)N)NC(=O)[C@H](Cc1ccc(OC)cc1)NC(=O)[C@H](CCCCNC(=N)N)NC(=O)[C@H](C)NC(=O)[C@@H](NC(=O)[C@H](Cc1c(F)c(F)c(F)c(F)c1F)NC(=O)[C@@H](NC(=O)[C@H](C)NC(=O)[C@H](CC(=O)O)NC(=O)[C@@H](CCCNC(=N)N)NC(=O)[C@H](Cc1ccc(O)cc1)NC(=O)CCCCCCCCCCCNC(=O)Cc1c(F)c(F)c(F)c(F)c1F)[C@@H](C)CC)[C@@H](C)O)C(C)C)[C@@H](C)CC)C(=O)N[C@H](CCCNC(=N)N)C(=O)N[C@@H](CCCCNC(=N)N)C(=O)NCCCCCCCCCCCC(N)=O) [AVR]", "values": [{"measurement": "CD209f gene expression in lung", "setting": "CD209f gene", "result": "significantly downregulated"}, {"measurement": "lung inflammation score (percentage of lung inflammation)", "setting": "[1]", "result": "significantly lower inflammation scores"}, {"measurement": "IL2 expression in lung", "setting": "IL2, OAS1 and ISG15", "result": "reduced significantly"}, {"measurement": "ISG15 expression in lung", "setting": "IL2, OAS1 and ISG15", "result": "reduced significantly"}, {"measurement": "OAS1 expression in lung", "setting": "IL2, OAS1 and ISG15", "result": "reduced significantly"}, {"measurement": "iNOS expression in the challenged lung", "setting": "iNOS", "result": "significantly reduced MAB-induced increased iNOS expression"}, {"measurement": "active caspase 3 concentration", "setting": "[2]", "result": "significantly increased"}]}
{"molecule": "C[C@H]1C[C@@H]2[C@H]([C@@H](O)C[C@@]3(C)[C@H]2CC[C@]3(O)C(=O)COC(=O)CCC(=O)[O-])[C@@]2(C)C=CC(=O)C=C12.[Na+]", "note": "[Solu-Medrol, reference compound]", "values": [{"measurement": "lung inflammation score (percentage of lung inflammation)", "setting": "[1]", "result": "less effect than AVR"}, {"measurement": "iNOS expression in the challenged lung", "setting": "iNOS", "result": "reduced MAB-induced increased iNOS expression"}, {"measurement": "active caspase 3 concentration", "setting": "[2]", "result": "significantly increased"}, {"measurement": "MCL-1/Bak dimer concentration", "setting": "[2]", "result": "significantly reduced"}]}
